{
  "source": "patent US20060045880A1",
  "about": "(priority 2004, published 2006)",
  "key": {"[1]": {"system": "BAE/APJ#2 cells", "test": "BAE/APJ#2 cell proliferation, BrdU incorporation", "format": "cell-based, bovine", "set-up": "effect on VEGF-mediated proliferation: dose or concentration left out as unconfirmed", "protocol": "(§1) Bovine aortic endothelial cells (BAE) were cultured in DMEM supplemented with 10% fetal bovine serum (FBS) and penicillin/streptomycin. For generation of stable cell lines expressing APJ, the mouse APJ coding region was cloned into the pcDNA 3.1 vector downstream of the CMV promoter, in frame with a myc epitope at the C-terminal end of the protein, and upstream of the neomycin gene. Bovine aortic endothelial (BAE) cells were transfected with this construction using the Superfect transfection kit (Qiagen) and selected for resistance to G418 (600 μg/ml). Colonies were isolated and screened using RT-PCR for expression of mouse APJ and also by immunocytochemistry for expression of the myc epitope."}, "[2]": {"system": "mouse endothelial cells (bEnd3)", "test": "bEnd3 cell proliferation, BrdU incorporation", "format": "cell-based", "protocol": "Similar cellular proliferation assays were performed using mouse endothelial cells (bEnd3) that constitutively express APJ. […] SU1498 was included in proliferation cultures at a 25 μM concentration, and results were assayed using BrdU incorporation.\nProliferation inhibition experiments with the bEnd3 cells also were carried out using FGF (50 ng/ml) or the FGF pathway inhibitor SU5402 (FIG. 19). SU5402 was included in proliferation cultures at a 20 μM concentration, and results were assayed using BrdU incorporation."}, "[3]": {"system": "apelin transcript", "test": "Antisense morpholino loss-of-function in frog embryos (apelin)", "format": "in vivo, Xenopus laevis", "protocol": "Loss-of-function experiments were performed using antisense morpholino oligonucleotides (MOs) (Gene Tools, Philomath, Oreg.), and the results are shown in FIG. 9. All morpholino oligonucleotides were designed based on recommendations from Gene Tools.\n(§2) Morpholino oligonucleotides were reconstituted in 50 mM HEPES buffer (pH 8.0) and injected into the frog embryo. The ap1 MO was injected at 15 ng per embryo, and the ap2 and apj MOs were injected at 7.5 ng. Mismatch controls, ap2 mm and apjmm, were used at twice the experimental dose (15 ng). The MOs were injected into one cell of a 2 cell embryo together with Texas Red Dextran (10 ng; Molecular Probes) as a lineage tracer. Embryos were grown to stage 35 when they were assayed by in situ hybridization using the vascular marker, erg."}, "[4]": {"system": "APJ transcript", "test": "Antisense morpholino loss-of-function in frog embryos (APJ)", "format": "in vivo, Xenopus laevis", "protocol": "One antisense morpholino oligonucleotide, designed to block translation from both copies of the APJ transcript, was targeted immediately upstream of the initiation ATG: apj 5′-[…]-3′ (SEQ ID NO:9).\nThe 5 base pair mismatch control sequence for the apj morpholino oligonucleotide (apjmm) is: apjmm 5′-AAGcCTcTGTGcAAcCAATAcAAAG-3′ (SEQ ID NO:10); the mismatch bases indicated in lowercase.\nas §2"}, "[5]": {"system": "apelin expression", "test": "Apelin expression in cardiac myocytes under cobalt chloride (hypoxia mimic), PCR", "format": "cell-based, rat", "protocol": "Preliminary experiments were carried out using primary rat cardiomyocyte cells in culture and treatment with cobalt chloride. This procedure is accepted as an equivalent to culturing cells under hypoxic conditions because HIF-1α is a metal responsive transcription protein (Ladoux and Frelin, 1994; Piret et al., 2002; Maxwell and Salnikow, 2004). Fetal rat cardiac myocytes were plated and cultured in DMEM (Invitrogen, Carlsbad, Calif.) supplemented with 10% fetal calf serum and penicillin/streptomyocin at 37° C. After four days of culture, medium was removed, and cells were treated with fresh media containing 150 μM Cobalt Chloride (Piret et al., 2002). […] After 4 hours of culture, cells were harvested, and total RNA was extracted using the Trizol procedure according to the manufacturers recommendations (Invitrogen, Carlsbad, Calif.).\nFollowing PCR, amplification products were fractionated on an agarose gel and visualized using ethidium bromide staining under ultraviolet light (FIG. 12).\nThe myocytes were grown in the presence of Cobalt chloride (30 μg/ml). A control known to be non-responsive to hypoxic conditions was used (β-actin), as well as two positive controls which are known to be responsive to hypoxic conditions (VEGF and GLUTI)."}, "[6]": {"system": "BAE/APJ#2 cells", "details": "10 ng/ml in bottom chamber, 16 hours", "protocol": "as §1\nCell migration assays were performed using Transwell cell culture migration chambers (Becton Dickinson) with 8 micron pore size. BAE/APJ#2 cells were plated in serum free conditions in 100 μl at a concentration of 1×10^5 ml in the upper chamber of the migration chamber. Following cell attachment to the membrane, 10 ng/ml of growth factor was added to the bottom chamber, in a total volume of 0.5 ml. […] Cells attached to the membrane in the lower chamber were stained with DAPI, and 3 random fields were counted for each experimental condition."}},
  "data": [
    {"molecule": "CC(C)c1cc(/C=C(\\C#N)C(=O)NCCCc2ccccc2)cc(C(C)C)c1O", "note": "[SU1498]", "values": [
      {"measurement": "effect on VEGF-mediated proliferation", "setting": "[1]; SU1498", "value": "partially inhibits"},
      {"measurement": "effect on apelin-mediated proliferation", "setting": "[1]; SU1498 10 ng/ml", "value": "no significant effect"},
      {"measurement": "effect on VEGF-mediated proliferation", "setting": "[2]; bEnd3, SU1498 25 μM, VEGF 50 ng/ml", "value": "partially inhibits"},
      {"measurement": "effect on apelin-mediated proliferation", "setting": "[2]; bEnd3, SU1498 25 μM, apelin 10 ng/ml", "value": "no significant effect"}
    ]},
    {"molecule": "5′-GATTCATGTTTCTTGTGGCTGAGTG-3′ (all phosphorodiamidate morpholino (PMO)) [ap2]", "values": [
      {"measurement": "embryos with loss of intersomitic vessel formation", "setting": "[3]; 7.5 ng, N=64, stage 35", "value": "63 % of the embryos"}
    ]},
    {"molecule": "Cc1c[nH]c(/C=C2\\C(=O)Nc3ccccc32)c1CCC(=O)O", "note": "[SU5402]", "values": [
      {"measurement": "effect on the proliferative effect of FGF", "setting": "[2]; bEnd3, SU5402 20 μM, FGF 50 ng/ml", "value": "partially inhibited"},
      {"measurement": "effect on apelin-stimulated cellular proliferation", "setting": "[2]; bEnd3, SU5402 20 μM, apelin 10 ng/ml", "value": "did not have a significant effect"}
    ]},
    {"molecule": "5′-AAGGCTGTGTGGAAGCAATAGAAAG-3′ (all phosphorodiamidate morpholino (PMO)) [antisense morpholino to the APJ receptor]", "values": [
      {"measurement": "embryos with decrease in angiogenic growth of blood vessels", "setting": "[4]; 7.5 ng, N=48, stage 35", "value": "71 % of the embryos"}
    ]},
    {"molecule": "[Cl][Co][Cl]", "note": "[Cobalt Chloride]", "values": [
      {"measurement": "apelin expression (PCR)", "setting": "[5]; 150 μM Cobalt Chloride, 4 hours, fetal rat cardiac myocytes", "value": "significantly increased"},
      {"measurement": "apelin expression", "setting": "[5]; Cobalt chloride 30 μg/ml, rat cardiac myocytes", "value": "induced"}
    ]},
    {"molecule": "5′-AAGcCTcTGTGcAAcCAATAcAAAG-3′ (antisense AAGCCTCTGTGCAACCAATACAAAG; all phosphorodiamidate morpholino (PMO)) [apjmm]", "values": [
      {"measurement": "alteration in the vascular growth of the embryos", "setting": "[4]; mismatch control, 15 ng", "value": "did not produce a detectable alteration"}
    ]},
    {"molecule": "5′-GATTgATcTTTgTTGTGcCTcAGTG-3′ (antisense GATTGATCTTTGTTGTGCCTCAGTG; all phosphorodiamidate morpholino (PMO)) [ap2 mm]", "values": [
      {"measurement": "alteration in the vascular growth of the embryos", "setting": "[3]; mismatch control, 15 ng", "value": "did not produce a detectable alteration"}
    ]},
    {"molecule": "VEGF", "values": [
      {"measurement": "cellular proliferation of endothelial cells", "setting": "[2]; bEnd3, apelin 10 ng/ml, VEGF 50 ng/ml, FIG. 17 0.1 ng/ml to 1 μg/ml", "value": "proliferate"},
      {"measurement": "endothelial cell migration (cells per field)", "setting": "[6]", "value": "increase in migration"}
    ]},
    {"molecule": "5′-GTGCCCAAAGTCTGAGATTCATGTT-3′ (all phosphorodiamidate morpholino (PMO)) [ap1]", "values": [
      {"measurement": "embryos with inhibition of angiogenic growth of embryonic blood vessels", "setting": "[3]; 15 ng per embryo, N=76, stage 35", "value": "67 % of the embryos"}
    ]}
  ]
}
